Where a name gives a salt, the structure may show the parent alone.
Key:
NCI-N87 cells = assay: Cell viability assay (CCK-8), NCI-N87; assay type: cell-based; conditions: Homo sapiens, Fig. 1a 48 h exposure, 0–1 µM, read-out: IC50 antiproliferative effect
Experimental: Human GC cell lines SNU-1, HGC27 and MGC803 were purchased from Peking Union Medical College, and the NCI-N87 cell line was a gift from You-yong Lv, Ph.D. (Peking University Cancer Hospital and Institute). Cells were cultured in RPMI 1640 medium and Dulbecco’s Modified Eagle Medium (Gibco-BRL, MD, USA), respectively, supplemented with 10% fetal bovine serum (Gibco-BRL), 100 U/ml penicillin (Gibco-BRL) and […] streptomycin (Gibco-BRL). Cells were incubated in a humidified incubator (37 °C) supplemented with 5% CO2.
SNU-1, HGC27, MGC803 and NCI-N87 cells (5000 cells/well) were seeded in 96-well plates and incubated overnight in complete medium, followed by exposure to gimatecan (0–1 µM) or irinotecan (0–1 µM) for 24, 48, or 72 h. Cell viability was measured using a Cell Counting Kit-8 (Dojindo, Kumamoto, Japan) according to the manufacturer’s instructions. Absorbance at 450 nm was measured using a microplate spectrophotometer. All experiments were repeated at least three times.

Ki-67 in GC PDX tissues = assay: Immunohistochemistry staining of Ki-67 in xenograft tissues; assay type: in vivo, NOD/SCID mice; conditions: day 22 of treatment
Experimental: After mice were sacrificed, xenograft tissues were isolated, and formalin-fixed paraffin embedded (FFPE) tissue sections were prepared. After deparaffinization, hydration, endogenous peroxidase treatment, and retrieval, 4-μm-thick FFPE sections were incubated with primary antibodies (1:100) overnight at 4 °C. The signal was assayed after incubation with IgG-HRP polymer (ZSGB-BIO, Beijing, China) and diaminobenzidine substrate. Sections were interpreted by pathologists from the Department of Pathology of Peking University Cancer Hospital who were blinded to this study. The scoring standard of Ki-67 was consistent with a previous report.
A PDX model was established by subcutaneously transplanting tumor tissues of a patient into NOD/SCID mice and PDX 1–5 indicated PDX models from 5 different GC patients. PDX tissues were subcutaneously inoculated into mice, and when the tumor size reached 150–250 mm^3, mice (n = 5 in each group) were treated with buffer control or inhibitors. Tumor volumes were presented as mean ± SD. The antitumor activity is depicted by tumor growth inhibition (TGI). […] (ΔT = tumor volume change of the drug-treated group, ΔC = tumor volume change of the control group on the final day of the study). *p < 0.05, **p < 0.01, ***p < 0.001. b Immunohistochemical staining for Ki-67 of xenografts on day 22 of treatment from four PDX models. The ki-67 index, marker of cell proliferation, was calculated as the proportion of positive tumor cell nuclei in all tumor cells examined and labeled in red in the images. Scale bar represents 100 µm TEXT PRINTED IN THE PICTURE: (b) Vehicle: PDX 2: 100%; PDX 3: 70%; PDX 4: 70%; PDX 5: 40% | (b) Irinotecan: PDX 2: 60%; PDX 3: 70%; PDX 4: 60%; PDX 5: 50% | (b) Gimatecan: PDX 2: 60%; PDX 3: 10%; PDX 4: 40%; PDX 5: 10% DOUBTS OF THE COPYIST ABOUT THIS PICTURE: Vehicle, PDX 3: 70% or 20% (blurred red print on the image) / Vehicle, PDX 4: 70% or 20% / Vehicle, PDX 5: 40%, first digit blurred / Irinotecan, PDX 2: 60% or 80% or 50% / Irinotecan, PDX 3: 70% or 20% / Irinotecan, PDX 4: 60% or 50% or 80% / Irinotecan, PDX 5: 50% or 60% or 30% / Gimatecan, PDX 2: 60% or 50% or 80% / Gimatecan, PDX 4: 40%, first digit blurred / The measure of the percentages in panel b is not printed in the picture

Compound | IC50 (NCI-N87 cells) | Ki-67 (%) (Ki-67 in GC PDX tissues; PDX model 2, control 100) | Ki-67 (%) (Ki-67 in GC PDX tissues; PDX model 3, control 70) | Ki-67 (%) (Ki-67 in GC PDX tissues; PDX model 4, control 70) | Ki-67 (%) (Ki-67 in GC PDX tissues; PDX model 5, control 40)
CC[C@@]1(O)C(=O)OCc2c1cc1n(c2=O)Cc2c-1nc1ccccc1c2/C=N/OC(C)(C)C [Gimatecan, 7-t-butoxyiminomethylcamptothecin] | 88.2 nM | 60% | 10% | 40% | 10%
CCc1c2c(nc3ccc(OC(=O)N4CCC(N5CCCCC5)CC4)cc13)-c1cc3c(c(=O)n1C2)COC(=O)[C@]3(O)CC [Irinotecan, irinotecan hydrochloride] | 142 nM | 60% | 70% | 60% | 50%
